One test deals with HT-29. Nature of the test: Cytotoxicity against human HT-29 cells incubated for 72 hrs by MTT assay. The following applies: HT-29, 72 h. The format is functional. Background: Formazan colour is commonly taken as a measure of viable cells.
Another test relates to Jurkat. Nature of the test: Cytotoxicity against human Jurkat cells incubated for 72 hrs by MTT assay. The format is functional.
Test [1] addresses Proto-oncogene tyrosine-protein kinase Src (Homo sapiens, UniProt P12931). As to the kind of experiment: Inhibition of SRC (unknown origin) by Z'-LYTE assay.
For test [2], the system named is MDA-MB-231. As to the kind of experiment: Cytotoxicity against human MDA-MB-231 cells incubated for 48 hrs by MTT assay. Format: functional, cell-based. The following applies: MDA-MB-231, 48 h.
The target in another test is Tubulin (Homo sapiens) (UniProt P68371+Q9H4B7+P0DPH7+P68366+Q13509+Q71U36+P04350+Q3ZCM7+P07437+P68363+Q9BQE3+Q6PEY2+Q13885+Q9BVA1+Q9BUF5). As to the kind of experiment: Inhibition of tubulin polymerization (unknown origin) at 3 uM incubated for 1 hr by fluorescence assay relative to control. The format is protein-complex assay.
Test [3] can be described thus: Cytotoxicity against mouse DLA cells incubated for 48 hrs by MTT assay. Format: functional, cell-based.
A short description of test [4]: Cytotoxicity against mouse DLA cells incubated for 48 hrs by LDH release assay. Format: functional, cell-based. In general terms: LDH in the medium is a marker of cell lysis.
Test [5] can be described thus: Cytotoxicity against mouse DLA cells incubated for 48 hrs by trypan blue dye based assay. The format is functional, cell-based.
For a further test, the target named is Histone deacetylase 1 (Homo sapiens, UniProt Q13547). Nature of the test: Inhibition of HDAC1 (unknown origin) using Ac-peptide as substrate pretreated for 15 mins followed by substrate addition and measured after 60 mins by fluorescence assay.
Chain of Histone deacetylase 1 (Q13547 whole entry): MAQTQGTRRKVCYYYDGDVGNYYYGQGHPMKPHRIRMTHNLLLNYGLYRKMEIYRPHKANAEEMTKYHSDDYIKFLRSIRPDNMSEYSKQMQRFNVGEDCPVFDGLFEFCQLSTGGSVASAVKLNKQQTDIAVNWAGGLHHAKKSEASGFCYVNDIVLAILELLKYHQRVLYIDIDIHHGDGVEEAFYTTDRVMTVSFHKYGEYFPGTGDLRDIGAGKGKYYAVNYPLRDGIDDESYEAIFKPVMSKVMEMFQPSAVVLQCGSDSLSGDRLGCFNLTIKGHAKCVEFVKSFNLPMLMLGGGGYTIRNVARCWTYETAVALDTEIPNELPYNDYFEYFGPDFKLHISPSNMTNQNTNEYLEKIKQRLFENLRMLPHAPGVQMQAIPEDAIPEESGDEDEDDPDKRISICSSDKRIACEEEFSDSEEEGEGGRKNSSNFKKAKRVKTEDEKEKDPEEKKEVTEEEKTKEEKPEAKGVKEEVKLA
A further test has as its system Capan-2. As to the kind of experiment: Cytotoxicity against human Capan2 cells incubated for 24 hrs by MTT assay. The conditions noted are these: Capan-2, 24 h. Format: functional, cell-based.
The test system of another test is MIA PaCa-2. As to the kind of experiment: Cytotoxicity against human MIAPaCa2 cells incubated for 24 hrs by MTT assay. Format: functional, cell-based. The conditions noted are these: MIA PaCa-2, 24 h.
The next test deals with CFPAC-1. Nature of the test: Cytotoxicity against human CFPAC-1 cells incubated for 24 hrs by MTT assay. The format is functional, cell-based. The conditions noted are these: CFPAC-1, 24 h.
A further test has as its system PANC-1. Nature of the test: Cytotoxicity against human PANC1 cells incubated for 24 hrs by MTT assay. Format: functional, cell-based. The following applies: PANC-1, 24 h.
The test system of another test is L1210. As to the kind of experiment: Growth inhibition of mouse L1210 cells by MTS assay. Format: functional, cell-based.
The subject of test [6] is 4T1. As to the kind of experiment: Antitumor activity against mouse 4T1 cells implanted in BALB/c mouse assessed as median number of metastases per lung at 50 mg/kg, ig administered daily post implantation (reference value: 40.5). The format is functional.
The next test deals with DU-145. Nature of the test: Cytotoxicity against human DU145 cells incubated for 48 hrs by MTT assay. Format: functional, cell-based. The following applies: DU-145, 48 h.
Test [7] deals with 4T1. As to the kind of experiment: Antitumor activity against mouse 4T1 cells implanted in BALB/c mouse assessed as median number of metastases per lung at 100 mg/kg, ig administered daily post implantation (reference value: 40.5). The format is functional.
For another test, the system named is L02. Nature of the test: Cytotoxicity against human L02 cells incubated for 48 hrs by MTT assay. Format: cell-based. The conditions noted are these: L02, 48 h.
The test system of another test is CT26. As to the kind of experiment: Cytotoxicity against mouse CT26 cells incubated for 48 hrs by MTT assay. The conditions noted are these: CT26, 48 h. The format is functional, cell-based.
For test [8], the system named is 4T1. As to the kind of experiment: Inhibition of colony formation in mouse 4T1 cells assessed as assessed as colony forming units at 2.5 uM incubated for 7 to 10 days by crystal violet staining based microscopic method (reference value: 364 +/- 46.4 No unit). The format is functional.
A further test concerns HeLa. Nature of the test: Cytotoxicity against human HeLa cells incubated for 48 hrs by MTT assay. The format is functional, cell-based.
The next test has as its system HK-2. Nature of the test: Cytotoxicity against human HK2 cells incubated for 48 hrs by MTT assay. The conditions noted are these: HK-2, 48 h. The format is cell-based.
Test [9] is described as follows: Cytotoxicity against mouse Meth-A cells incubated for 48 hrs by MTT assay. Format: functional, cell-based.
The test system of test [10] is Lewis lung carcinoma cell line. Nature of the test: Cytotoxicity against mouse LLC cells incubated for 48 hrs by MTT assay. Format: functional, cell-based.
The test system of another test is B16. As to the kind of experiment: Cytotoxicity against mouse B16 cells incubated for 48 hrs by MTT assay. Format: functional, cell-based. The following applies: B16, 48 h.
In test [11] the test system is 4T1. As to the kind of experiment: Inhibition of colony formation in mouse 4T1 cells assessed as colony forming units at 1.25 uM incubated for 7 to 10 days by crystal violet staining based microscopic method (reference value: 364 +/- 46.4 No unit). Format: functional.
Test [12] relates to 4T1. Nature of the test: Cytotoxicity against mouse 4T1 cells incubated for 48 hrs by MTT assay. The format is functional, cell-based. The following applies: 4T1, 48 h.
Another test relates to A549. As to the kind of experiment: Cytotoxicity against human A549 cells incubated for 48 hrs by MTT assay. The format is functional, cell-based. The following applies: A549, 48 h.
A short description of test [13]: Cytotoxicity against mouse MM3MG cells incubated for 48 hrs by MTT assay. Format: functional, cell-based.
The next test addresses Serine protease hepsin (Homo sapiens, UniProt P05981). As to the kind of experiment: Inhibition of recombinant human hepsin preincubated for 30 mins followed by Boc-QLR-AMC substrate addition by fluorescence assay.
The next test addresses Coagulation factor X (Homo sapiens, UniProt P00742). Nature of the test: Inhibition of recombinant factor 10a (unknown origin) preincubated for 30 mins followed by chromogenic substrate addition by fluorescence assay.
The target of test [14] is Hepatocyte growth factor activator serine protease (Homo sapiens, UniProt Q04756). As to the kind of experiment: Inhibition of recombinant HGFA serine protease domain (unknown origin) preincubated for 30 mins followed by Boc-QLR-AMC substrate addition by fluorescence assay.
Chain of Hepatocyte growth factor activator serine protease (Q04756 373-407 limits assumed): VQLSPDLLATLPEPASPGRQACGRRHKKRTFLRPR
Chain of Hepatocyte growth factor activator serine protease (Q04756 408-655 limits assumed): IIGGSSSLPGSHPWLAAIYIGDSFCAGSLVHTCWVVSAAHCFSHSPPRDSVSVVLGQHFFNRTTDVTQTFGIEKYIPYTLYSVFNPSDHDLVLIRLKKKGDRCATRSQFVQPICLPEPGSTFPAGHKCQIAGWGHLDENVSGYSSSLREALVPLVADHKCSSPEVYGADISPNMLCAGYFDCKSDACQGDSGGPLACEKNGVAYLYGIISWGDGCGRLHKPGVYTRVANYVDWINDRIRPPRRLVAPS
In test [15] the target is Suppressor of tumorigenicity 14 protein (Homo sapiens, UniProt Q9Y5Y6). As to the kind of experiment: Inhibition of recombinant human matriptase preincubated for 30 mins followed by Boc-QLR-AMC substrate addition by fluorescence assay.
Chain of Suppressor of tumorigenicity 14 protein (Q9Y5Y6 whole entry): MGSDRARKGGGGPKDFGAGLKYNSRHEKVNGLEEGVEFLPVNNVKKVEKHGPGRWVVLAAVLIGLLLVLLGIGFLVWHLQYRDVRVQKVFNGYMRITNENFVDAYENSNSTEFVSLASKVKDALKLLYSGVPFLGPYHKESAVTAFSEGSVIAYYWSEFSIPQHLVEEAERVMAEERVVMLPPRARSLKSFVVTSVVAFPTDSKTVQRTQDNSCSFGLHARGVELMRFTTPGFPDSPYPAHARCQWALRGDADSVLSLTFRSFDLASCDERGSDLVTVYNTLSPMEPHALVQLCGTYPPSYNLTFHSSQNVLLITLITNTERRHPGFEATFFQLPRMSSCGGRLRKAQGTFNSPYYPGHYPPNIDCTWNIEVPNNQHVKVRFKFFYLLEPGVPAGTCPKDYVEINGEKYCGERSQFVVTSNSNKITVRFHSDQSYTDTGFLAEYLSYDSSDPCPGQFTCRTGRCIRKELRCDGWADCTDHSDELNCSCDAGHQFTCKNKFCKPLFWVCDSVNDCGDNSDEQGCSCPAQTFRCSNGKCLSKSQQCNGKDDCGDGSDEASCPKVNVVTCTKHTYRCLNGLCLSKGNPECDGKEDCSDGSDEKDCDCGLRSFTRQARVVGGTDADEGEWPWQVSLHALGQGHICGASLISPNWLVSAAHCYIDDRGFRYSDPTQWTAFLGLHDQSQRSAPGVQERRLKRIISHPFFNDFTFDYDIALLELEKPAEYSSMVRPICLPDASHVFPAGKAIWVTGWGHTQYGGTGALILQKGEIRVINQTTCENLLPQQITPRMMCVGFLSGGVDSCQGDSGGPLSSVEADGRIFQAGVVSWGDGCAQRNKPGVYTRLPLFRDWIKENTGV
Another test deals with HepG2. As to the kind of experiment: Cytotoxicity against human HepG2 cells incubated for 48 hrs by MTT assay. The format is functional, cell-based. The conditions noted are these: HepG2, 48 h.
Test [16] addresses Epidermal growth factor receptor (Homo sapiens) (UniProt P00533). Nature of the test: Inhibition of EGFR (unknown origin) at 10 uM by immunoassay relative to control.
Test [17] deals with MDA-MB-231. Nature of the test: Anti-invasive activity against human MDA-MB-231 cells at 30 nM by crystal violet staining based Boyden chamber assay relative to control. Format: functional.
Test [18] deals with NIH3T3. As to the kind of experiment: Anti-invasive activity against mouse NIH/3T3 cells transfected with human AdoMetDC cDNA in sense orientation assessed as inhibition of cell invasion at 100 ng/ml incubated for 1 weeks by matrigel-based microscopic analysis relative to control. Format: functional. The conditions noted are these: NIH3T3, 168 h.
The subject of test [19] is NIH3T3. Nature of the test: Anti-invasive activity against mouse NIH/3T3 cells transfected with human AdoMetDC cDNA in antisense orientation assessed as inhibition of cell invasion at 100 ng/ml incubated for 1 weeks by matrigel-based microscopic analysis relative to control. Format: functional. The following applies: NIH3T3, 168 h.
Another test concerns the target Prothrombin (Homo sapiens, UniProt P00734). Nature of the test: Inhibition of recombinant thrombin (unknown origin) preincubated for 30 mins followed by chromogenic substrate addition by fluorescence assay.

What is called CC50 is the concentration giving 50% cytotoxicity. Read a high CC50 as better tolerance by the cells. In general, IC50 refers to the midpoint of a concentration-inhibition curve. One may read the inhibition as the drop in the measured response relative to a control, in per cent. One may read the Ki as a dissociation constant, usually derived from enzyme kinetics or from competition with a known ligand.

Chain of Coagulation factor X (P00742 41-179 limits assumed): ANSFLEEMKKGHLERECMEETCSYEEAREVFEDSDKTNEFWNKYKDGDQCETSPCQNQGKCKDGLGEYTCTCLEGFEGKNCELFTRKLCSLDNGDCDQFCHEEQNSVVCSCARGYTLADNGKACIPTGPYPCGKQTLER
Chain of Coagulation factor X (P00742 235-488 limits assumed): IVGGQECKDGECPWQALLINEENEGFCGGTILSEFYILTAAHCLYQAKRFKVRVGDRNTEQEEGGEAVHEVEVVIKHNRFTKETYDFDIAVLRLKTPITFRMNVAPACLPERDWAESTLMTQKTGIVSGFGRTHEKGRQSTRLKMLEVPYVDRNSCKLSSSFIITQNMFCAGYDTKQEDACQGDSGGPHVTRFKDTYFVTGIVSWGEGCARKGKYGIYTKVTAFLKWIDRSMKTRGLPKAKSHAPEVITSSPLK
Chain of Serine protease hepsin (P05981 1-162 limits assumed): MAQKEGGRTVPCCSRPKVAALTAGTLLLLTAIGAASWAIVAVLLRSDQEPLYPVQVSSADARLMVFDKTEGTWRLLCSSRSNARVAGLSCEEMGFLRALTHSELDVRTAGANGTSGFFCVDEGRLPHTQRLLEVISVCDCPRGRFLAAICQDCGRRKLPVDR
Chain of Serine protease hepsin (P05981 163-417 limits assumed): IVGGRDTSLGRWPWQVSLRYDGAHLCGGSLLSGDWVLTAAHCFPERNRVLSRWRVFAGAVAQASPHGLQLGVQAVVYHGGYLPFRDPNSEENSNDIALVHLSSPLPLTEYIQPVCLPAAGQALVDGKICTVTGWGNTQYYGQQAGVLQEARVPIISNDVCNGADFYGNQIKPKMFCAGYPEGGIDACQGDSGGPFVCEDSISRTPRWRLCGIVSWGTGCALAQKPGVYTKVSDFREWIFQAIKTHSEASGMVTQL
Chain of Epidermal growth factor receptor (Homo sapiens) (P00533 whole entry): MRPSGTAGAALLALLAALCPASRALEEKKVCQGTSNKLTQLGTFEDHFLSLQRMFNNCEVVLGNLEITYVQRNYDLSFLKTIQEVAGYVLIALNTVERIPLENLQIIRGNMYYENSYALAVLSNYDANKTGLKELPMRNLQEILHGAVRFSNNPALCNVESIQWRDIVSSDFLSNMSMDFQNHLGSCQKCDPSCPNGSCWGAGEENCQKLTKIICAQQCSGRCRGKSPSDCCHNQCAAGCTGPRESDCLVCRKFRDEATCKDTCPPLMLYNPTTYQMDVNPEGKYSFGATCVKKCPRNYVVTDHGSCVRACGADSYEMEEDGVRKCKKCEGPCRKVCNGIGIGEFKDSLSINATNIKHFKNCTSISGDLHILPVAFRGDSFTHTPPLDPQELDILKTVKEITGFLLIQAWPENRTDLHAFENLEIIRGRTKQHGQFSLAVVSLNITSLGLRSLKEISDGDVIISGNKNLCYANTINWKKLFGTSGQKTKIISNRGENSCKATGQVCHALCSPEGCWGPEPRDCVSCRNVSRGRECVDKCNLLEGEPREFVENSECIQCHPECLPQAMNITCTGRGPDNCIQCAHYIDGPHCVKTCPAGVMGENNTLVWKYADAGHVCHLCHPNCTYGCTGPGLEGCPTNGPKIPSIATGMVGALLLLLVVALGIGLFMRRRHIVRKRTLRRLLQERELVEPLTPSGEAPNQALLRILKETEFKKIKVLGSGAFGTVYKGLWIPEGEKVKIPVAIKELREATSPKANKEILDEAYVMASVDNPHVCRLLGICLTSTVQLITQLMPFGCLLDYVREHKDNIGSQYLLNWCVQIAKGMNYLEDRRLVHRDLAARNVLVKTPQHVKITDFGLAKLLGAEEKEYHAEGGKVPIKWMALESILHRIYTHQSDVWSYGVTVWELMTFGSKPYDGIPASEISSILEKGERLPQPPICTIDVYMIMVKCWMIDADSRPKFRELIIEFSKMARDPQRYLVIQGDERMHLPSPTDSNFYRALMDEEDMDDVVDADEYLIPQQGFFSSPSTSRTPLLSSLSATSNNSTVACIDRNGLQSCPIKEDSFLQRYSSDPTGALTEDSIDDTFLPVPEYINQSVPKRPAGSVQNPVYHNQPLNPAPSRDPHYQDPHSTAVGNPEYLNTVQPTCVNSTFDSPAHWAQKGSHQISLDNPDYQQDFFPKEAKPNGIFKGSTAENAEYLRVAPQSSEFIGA
Chain of Proto-oncogene tyrosine-protein kinase Src (P12931 2-536 limits assumed): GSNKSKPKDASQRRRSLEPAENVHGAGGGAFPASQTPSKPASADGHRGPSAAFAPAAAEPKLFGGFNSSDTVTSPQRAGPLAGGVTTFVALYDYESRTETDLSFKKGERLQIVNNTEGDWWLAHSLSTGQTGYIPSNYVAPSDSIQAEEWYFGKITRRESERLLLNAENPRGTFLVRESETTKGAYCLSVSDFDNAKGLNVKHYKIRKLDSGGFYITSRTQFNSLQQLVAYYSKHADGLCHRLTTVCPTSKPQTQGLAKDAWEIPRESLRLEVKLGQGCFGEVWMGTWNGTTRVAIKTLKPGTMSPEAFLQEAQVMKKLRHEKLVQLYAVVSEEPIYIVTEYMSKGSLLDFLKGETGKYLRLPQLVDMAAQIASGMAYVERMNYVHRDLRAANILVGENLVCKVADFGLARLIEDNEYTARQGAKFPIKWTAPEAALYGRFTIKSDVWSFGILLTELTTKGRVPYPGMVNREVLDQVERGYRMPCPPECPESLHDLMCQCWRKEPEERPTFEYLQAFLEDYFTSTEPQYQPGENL

As to `CC/C(=N\Nc1nc(-c2ccc(OC)cc2)cs1)c1cccc(Br)c1`, the CC50 with HT-29 stood at 62000 nM; in the test with Jurkat, 114000 nM.

On to `Cc1nc(Nc2ncc(-c3ccccc3)s2)cc(N2CCN(CCO)CC2)n1`, for which the IC50 in test [1] was 97 nM.

In turn, `COc1ccc2c(c1)sc1nc(CCC(=O)c3ccc(OC)c(O)c3)cn12` registered an IC50 with MDA-MB-231 [2] of 1300 nM. The compound also came in with an inhibition at Tubulin (Homo sapiens) of 59.2%.

With `O=C(CN1CCN(c2nc3ccccc3s2)CC1)NNC(=O)c1ccc(Br)cc1`, the figures for the IC50 in test [3], in test [4] and in test [5] were 22600 nM, 23000 nM and 25000 nM, respectively.

With `C/C(=N\NC1SC=C(c2ccc3ccccc3c2)N1C)c1ccccn1` (configuration not stated), the figures for the CC50 with HT-29 and in the test on Jurkat were 57800 nM and 16200 nM, respectively.

Take `O=C(CCCOc1ccc(N2C(=O)CSC2c2ccc(Br)s2)cc1)NO` (configuration not stated): the IC50 at Histone deacetylase 1 stood at 73 nM.

Turning to `CN(C)C(=S)NN=C(c1ccccn1)c1ccccn1`, the IC50 in the test on Capan-2 came out at 1 nM; in the test with MIA PaCa-2 it was 1 nM; in the test on CFPAC-1, 200 nM; in the test on PANC-1, 4 nM.

On to `NC(=S)N/N=C/c1ncccc1N` [TRIAPINE], for which, in the test with L1210, half-maximal inhibition (IC50) was put at 1300 nM.

Take `COc1ccccc1C(=O)Nc1ccc2nc(SCC(=O)NCc3ccc(Cl)cc3)sc2c1`: the Activity with 4T1 [6] is given as 19.5; with 4T1 [7] it was 6; in the test with 4T1 [8], 56 CFU; with 4T1 [11] it was 189 CFU. For the same compound, the IC50 with DU-145 is 1900 nM; with L02, more than 40000 nM; in the test with CT26 it was 4300 nM; in the test on HeLa, 4300 nM; in the test with HK-2, more than 40000 nM; in test [9] it was 12300 nM. The IC50 is 6500 nM in [10]; 5600 nM with B16; 1200 nM in the test with 4T1 [12]; 2400 nM with A549; more than 40000 nM in test [13].

As for `CC(=O)N[C@@H](CCCCN)C(=O)N[C@@H](CCCNC(=N)N)C(=O)N[C@@H](CC(C)C)C(=O)N[C@@H](CCCNC(=N)N)C(=O)c1nc2ccc(C(=O)NCc3ccc(C(=O)O)cc3)cc2s1`, the Ki on Serine protease hepsin was 0.67 nM; at Coagulation factor X, 29 nM; in test [14], 3.7 nM; in test [15] it was 2.5 nM.

On to `Clc1ccc(/C=N\Nc2ccc(-c3nc4ccccc4s3)cc2)cc1`, for which, in the test with HepG2, the IC50 is 27 nM. Also, in test [16], the inhibition was found to be 47.3%.

Regarding `Nc1ccn([C@@H]2O[C@H](CO)[C@@H](O)C2(F)F)c(=O)n1` [GEMCITABINE], the IC50 in the test on Capan-2 was 40800 nM; in the test with MIA PaCa-2, 16 nM; in the test with CFPAC-1, 22 nM; with PANC-1, 11000 nM.

In the case of `C/C1=C/C(=O)O[C@@H]2C[C@@H](CC[C@H](C)/C=C\C=C\CC1)O[C@@](O)([C@@H]1CSC(=O)N1)C2` [LATRUNCULIN A], in the test on MDA-MB-231 [17], the Activity is listed as less than 50%. Moreover, the inhibition at 0.1 µg/mL in the test with NIH3T3 [18] and with NIH3T3 [19] was more than 95% each time.

In the case of `O=C1c2ccccc2C(=O)N1C/C=N\N=c1\scc(-c2cccc([N+](=O)[O-])c2)n1-c1ccccc1`, the CC50 in the test with HT-29 turned out to be 21300 nM; in the test on Jurkat, 21200 nM.

In turn, `COc1ccc(C(=O)CCc2cn3c(n2)sc2ccccc23)cc1` yielded an IC50 in the test on MDA-MB-231 [2] of 1200 nM. Besides, on Tubulin (Homo sapiens), the inhibition worked out at 61.4%.

In turn, `COC(=O)Nc1nc2cc(C(=O)c3cccs3)ccc2[nH]1` came in with an inhibition at Tubulin (Homo sapiens) of 58.3%.

Consider `CC[C@H](NC(C)=O)C(=O)N[C@@H](CCCN)C(=O)N[C@@H](CC(C)C)C(=O)N[C@@H](CCCNC(=N)N)C(=O)c1nc2ccc(C(=O)NC3CCNCC3)cc2s1`, for which the inhibition constant (Ki) at Serine protease hepsin came out at 0.27 nM; at Coagulation factor X it was 447 nM; in [14] it was 7.2 nM; in test [15], 1.3 nM; at Prothrombin, 2950 nM.

Regarding `O=c1[nH]cc(F)c(=O)[nH]1` [FLUOROURACIL], the IC50 amounted to 54200 nM in the test with Capan-2, 24300 nM with MIA PaCa-2, 41200 nM in the test on CFPAC-1 and 62300 nM in the test with PANC-1.

For the compound `CN(C(=S)NN=C(c1ccccn1)c1ccccn1)C1CCCCC1`, the IC50 with Capan-2 amounted to 20 nM; with MIA PaCa-2 it was 5 nM; in the test on CFPAC-1, 203 nM; with PANC-1, 30 nM.

The values are drawn from ChEMBL document CHEMBL4346675, “Multi-target compounds acting in cancer progression: Focus on thiosemicarbazone, thiazole and thiazolidinone analogues” (Eur J Med Chem, 2019).
